From US6586402B1, “LH-RH peptide analogues, their uses and pharmaceutical compositions containing them” (Laboratoire Theramex, priority 1997, dated 2003)
“Also recorded” adds a separate entry of the source. Square brackets hold non-standard residues; d marks the D form. Peptide text beside a SMILES is read from it. 1Nal = N[C@@H](Cc1cccc2ccccc12)C(=O)O; 2Nal = N[C@@H](Cc1ccc2ccccc2c1)C(=O)O; Bta = N[C@@H](Cc1csc2ccccc12)C(=O)O; tBuAla = CC(C)(C)C[C@H](N)C(=O)O; d3Pal = N[C@H](Cc1cccnc1)C(=O)O; d4Pal = N[C@H](Cc1ccncc1)C(=O)O; pGlu = O=C1CC[C@@H](C(=O)O)N1

How the values were obtained:
LH-RH receptors = molecular target: T1, LH-RH receptors (Rattus norvegicus, UniProt P30969); assay: Stimulation of testosterone secretion in adult male rats after subcutaneous injection (agonist activity in vivo); parameters: exert an agonist activity upon the LH-RH receptors in vivo; from tissue; host or cells: whole animal, adult male Sprague-Dawley rats; species or system Sprague-Dawley rats; details: for Total plasma testosterone: 10 ng/kg subcutaneous in PBS, blood two hours later, male Sprague-Dawley rats; for agonistic potency in words: comment on Tables 2 and 3
T1 sequence (P30969 1-327): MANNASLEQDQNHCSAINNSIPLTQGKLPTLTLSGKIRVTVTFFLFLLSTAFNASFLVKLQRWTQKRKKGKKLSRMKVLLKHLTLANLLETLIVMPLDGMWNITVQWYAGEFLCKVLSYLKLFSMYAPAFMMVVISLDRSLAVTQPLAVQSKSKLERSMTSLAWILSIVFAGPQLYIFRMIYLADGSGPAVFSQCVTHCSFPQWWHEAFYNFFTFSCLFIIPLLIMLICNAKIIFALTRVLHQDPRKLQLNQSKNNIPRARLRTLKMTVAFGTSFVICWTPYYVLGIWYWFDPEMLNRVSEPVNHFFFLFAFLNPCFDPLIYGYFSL
Protocol: The peptides according to the general formula (IIa) exert an agonist activity upon the LH-RH receptors in vivo, resulting in the stimulation of LH secretion by the pituitary, which, in males, stimulates the secretion of testosterone by the testis.
Two hours later, blood samples were drawn for total plasma testosterone determination by direct radioimmunoassay (Immunotech).
At this intermediate dose of 10 ng/kg, several examples with Npg^7 or Ada^7 in place of Leu^7 according to the invention were screened for agonistic activity (Tables 2 and 3). When available from Bachem (France) or Sigma (France), the corresponding standard agonist with Leu^7 was tested for comparison.

[1] = molecular target: LH-RH receptors (membrane fractions of pituitaries from female Sprague Dawley rats) (rat (female Sprague Dawley)) (UniProt P30969); assay: competition with [125I]-buserelin, rat pituitary membranes; Ki by Cheng-Prusoff

| Compound | Total plasma testosterone (LH-RH receptors; Table 2, vehicle 2.7 ± 0.3) | agonistic potency in words (LH-RH receptors; 10 ng/kg s.c.) | further results |
| --- | --- | --- | --- |
| CCNC(=O)[C@@H]1CCCN1C(=O)[C@H](CCCN=C(N)N)NC(=O)[C@H](CC(C)C)NC(=O)[C@@H](Cc1c[nH]c2ccccc12)NC(=O)[C@H](Cc1ccc(O)cc1)NC(=O)[C@H](CO)NC(=O)[C@H](Cc1c[nH]c2ccccc12)NC(=O)[C@H](Cc1cnc[nH]1)NC(=O)[C@@H]1CCC(=O)N1 [Deslorelin, reference compound] | 11.8 ± 3.5 nmol/L | – | – |
| CC(C)(C)C[C@H](NC(=O)CNC(=O)[C@H](Cc1ccc(O)cc1)NC(=O)[C@H](CO)NC(=O)[C@H](Cc1c[nH]c2ccccc12)NC(=O)[C@H](Cc1c[nH]cn1)NC(=O)[C@@H]1CCC(=O)N1)C(=O)N[C@@H](CCCNC(=N)N)C(=O)N1CCC[C@H]1C(=O)NCC(N)=O [Example 1, pGlu-His-Trp-Ser-Tyr-Gly-Npg-Arg-Pro-Gly-NH2] | – | – | activity in stimulating testosterone secretion relative to LH-RH (LH-RH receptors; FIG. 1, various doses s.c., 8 animals per point): a little more than twice as active as LH-RH |
| CC(C)C[C@@H](NC(=O)[C@H](Cc1ccc(O)cc1)NC(=O)[C@H](CO)NC(=O)[C@H](Cc1c[nH]c2ccccc12)NC(=O)[C@H](Cc1c[nH]cn1)NC(=O)[C@@H]1CCC(=O)N1)C(=O)N[C@@H](CC(C)(C)C)C(=O)N[C@@H](CCCNC(=N)N)C(=O)N1CCC[C@H]1C(=O)NCC(N)=O [Example 5, pGlu-His-Trp-Ser-Tyr-D-Leu-Npg-Arg-Pro-Gly-NH2] ([pGlu]HWSY[dL][tBuAla]RPG-NH2) | 21.2 ± 6.6 nmol/L | range of potency similar to that of leuprorelin or tryptorelin | – |
| CC(C)(C)C[C@H](NC(=O)[C@@H](Cc1c[nH]c2ccccc12)NC(=O)[C@H](Cc1ccc(O)cc1)NC(=O)[C@H](CO)NC(=O)[C@H](Cc1c[nH]c2ccccc12)NC(=O)[C@H](Cc1c[nH]cn1)NC(=O)[C@@H]1CCC(=O)N1)C(=O)N[C@@H](CCCNC(=N)N)C(=O)N1CCC[C@H]1C(=O)NCC(N)=O [Example 11, pGlu-His-Trp-Ser-Tyr-D-Trp-Npg-Arg-Pro-Gly-NH2] ([pGlu]HWSY[dW][tBuAla]RPG-NH2) | 30.8 ± 3.5 nmol/L | Npg^7 led to more potent agonists than Ada^7 | activity in stimulating testosterone secretion relative to the Leu^7 counterpart (LH-RH receptors; 10 ng/kg s.c.): a little more than twice as active |
| CC(C)(C)C[C@H](NC(=O)[C@@H](Cc1cccnc1)NC(=O)[C@H](Cc1ccc(O)cc1)NC(=O)[C@H](CO)NC(=O)[C@H](Cc1c[nH]c2ccccc12)NC(=O)[C@H](Cc1c[nH]cn1)NC(=O)[C@@H]1CCC(=O)N1)C(=O)N[C@@H](CCCNC(=N)N)C(=O)N1CCC[C@H]1C(=O)NCC(N)=O [Example 20, pGlu-His-Trp-Ser-Tyr-D-Pal-Npg-Arg-Pro-Gly-NH2] ([pGlu]HWSY[d3Pal][tBuAla]RPG-NH2) | – | range of potency similar to that of leuprorelin or tryptorelin | Total plasma testosterone (LH-RH receptors; Table 3, vehicle 4.3 ± 1.2): 24.9 ± 5.0 nmol/L |
| CC(C)(C)C[C@H](NC(=O)[C@@H](Cc1ccncc1)NC(=O)[C@H](Cc1ccc(O)cc1)NC(=O)[C@H](CO)NC(=O)[C@H](Cc1c[nH]c2ccccc12)NC(=O)[C@H](Cc1c[nH]cn1)NC(=O)[C@@H]1CCC(=O)N1)C(=O)N[C@@H](CCCNC(=N)N)C(=O)N1CCC[C@H]1C(=O)NCC(N)=O [Example 21, pGlu-His-Trp-Ser-Tyr-D-4Pal-Npg-Arg-Pro-Gly-NH2] ([pGlu]HWSY[d4Pal][tBuAla]RPG-NH2) | – | range of potency similar to that of leuprorelin or tryptorelin | Total plasma testosterone (LH-RH receptors; Table 3, vehicle 4.3 ± 1.2): 32.4 ± 7.0 nmol/L |
| CCNC(=O)[C@@H]1CCCN1C(=O)[C@H](CCCNC(=N)N)NC(=O)[C@H](CC(C)(C)C)N(C)C(=O)[C@@H](CC(C)C)NC(=O)[C@H](Cc1ccc(O)cc1)NC(=O)[C@H](CO)NC(=O)[C@H](Cc1c[nH]c2ccccc12)NC(=O)[C@H](Cc1c[nH]cn1)NC(=O)[C@@H]1CCC(=O)N1 [Example 23, pGlu-His-Trp-Ser-Tyr-D-Leu-MeNpg-Arg-Pro-NEt] | – | very strong agonistic activity; also recorded: more potent LH-RH agonists than current therapeutic LH-RH analogues | Total plasma testosterone (LH-RH receptors; Table 3, vehicle 4.3 ± 1.2): 49.4 ± 4.6 nmol/L |
| CCNC(=O)[C@@H]1CCCN1C(=O)[C@H](CCCNC(=N)N)NC(=O)[C@H](CC(C)(C)C)NC(=O)[C@@H](CC(C)C)NC(=O)[C@H](Cc1ccc(O)cc1)NC(=O)[C@H](CO)NC(=O)[C@H](Cc1cccc2ccccc12)NC(=O)[C@H](Cc1c[nH]cn1)NC(=O)[C@@H]1CCC(=O)N1 [Example 24, pGlu-His-1Nal-Ser-Tyr-D-Leu-Npg-Arg-Pro-NEt] ([pGlu]H[1Nal]SY[dL][tBuAla]RP-NHEt) | – | – | Total plasma testosterone (LH-RH receptors; Table 3, vehicle 4.3 ± 1.2): 14.3 ± 4.3 nmol/L |
| CCNC(=O)[C@@H]1CCCN1C(=O)[C@H](CCCNC(=N)N)NC(=O)[C@H](CC(C)(C)C)NC(=O)[C@@H](CC(C)C)NC(=O)[C@H](Cc1ccc(O)cc1)NC(=O)[C@H](CO)NC(=O)[C@H](Cc1ccc2ccccc2c1)NC(=O)[C@H](Cc1c[nH]cn1)NC(=O)[C@@H]1CCC(=O)N1 [Example 25, pGlu-His-2Nal-Ser-Tyr-D-Leu-Npg-Arg-Pro-NEt] ([pGlu]H[2Nal]SY[dL][tBuAla]RP-NHEt) | – | range of potency similar to that of leuprorelin or tryptorelin | Total plasma testosterone (LH-RH receptors; Table 3, vehicle 4.3 ± 1.2): 27.3 ± 6.9 nmol/L |
| CCNC(=O)[C@@H]1CCCN1C(=O)[C@H](CCCNC(=N)N)NC(=O)[C@H](CC(C)(C)C)NC(=O)[C@@H](CC(C)C)NC(=O)[C@H](Cc1ccc(O)cc1)NC(=O)[C@H](CO)NC(=O)[C@H](Cc1csc2ccccc12)NC(=O)[C@H](Cc1c[nH]cn1)NC(=O)[C@@H]1CCC(=O)N1 [Example 26, pGlu-His-Bal-Ser-Tyr-D-Leu-Npg-Arg-Pro-NEt] ([pGlu]H[Bta]SY[dL][tBuAla]RP-NHEt) | – | – | Total plasma testosterone (LH-RH receptors; Table 3, vehicle 4.3 ± 1.2): 12.2 ± 2.7 nmol/L |
| AcD-Nal-D-pClPhe-D-Pal-Ser-NicLys-D-NicLys-Npg-IprLys-Pro-D-Ala-NH2 (peptide) | – | – | pKi [1]: 9.23 -log Ki |
| AcD-Nal-D-pClPhe-D-Pal-Ser-Tyr-D-Cit-Npg-IprLys-Pro-D-Ala-NH2 (peptide) | – | – | pKi [1]: 9.72 -log Ki |
| AcD-Nal-D-pClPhe-D-Pal-Ser-Tyr-D-HCit-Npg-IprLys-Pro-D-Ala-NH2 (peptide) | – | – | pKi [1]: 10.1 -log Ki |
| Goserelin (peptide) | – | – | pKi [1]: 8.58 -log Ki |
| pGlu-His-Trp-Ser-Tyr-D-Ala-Npg-Arg-Pro-NEt (peptide) | – | – | pKi [1]: 10 -log Ki |

Second part, led by results:

| Total plasma testosterone (LH-RH receptors; Table 2, vehicle 2.7 ± 0.3) | Compound | agonistic potency in words (LH-RH receptors; 10 ng/kg s.c.) | further results |
| --- | --- | --- | --- |
| 33.5 ± 3.5 nmol/L | CCNC(=O)[C@@H]1CCCN1C(=O)[C@H](CCCNC(=N)N)NC(=O)[C@H](CC(C)C)NC(=O)[C@@H](CC(C)C)NC(=O)[C@H](Cc1ccc(O)cc1)NC(=O)[C@H](CO)NC(=O)[C@H](Cc1c[nH]c2ccccc12)NC(=O)[C@H](Cc1c[nH]cn1)NC(=O)[C@@H]1CCC(=O)N1 [Leuprorelin, reference compound] | – | – |
| 20.3 ± 2.5 nmol/L | CC(C)C[C@H](NC(=O)[C@@H](Cc1c[nH]c2ccccc12)NC(=O)[C@H](Cc1ccc(O)cc1)NC(=O)[C@H](CO)NC(=O)[C@H](Cc1c[nH]c2ccccc12)NC(=O)[C@H](Cc1c[nH]cn1)NC(=O)[C@@H]1CCC(=O)N1)C(=O)N[C@@H](CCCNC(=N)N)C(=O)N1CCC[C@H]1C(=O)NCC(N)=O [Tryptorelin, reference compound] | – | – |
| 30.6 ± 7.2 nmol/L | CCNC(=O)[C@@H]1CCCN1C(=O)[C@H](CCCNC(=N)N)NC(=O)[C@H](CC(C)C)NC(=O)[C@@H](C)NC(=O)[C@H](Cc1ccc(O)cc1)NC(=O)[C@H](CO)NC(=O)[C@H](Cc1c[nH]c2ccccc12)NC(=O)[C@H](Cc1c[nH]cn1)NC(=O)[C@@H]1CCC(=O)N1 [[D-Ala^6, Pro^9NEt]-LH-RH, reference compound] | – | – |
| 6.4 ± 1.9 nmol/L | CC(C)C[C@H](NC(=O)[C@@H](C)NC(=O)[C@H](Cc1ccc(O)cc1)NC(=O)[C@H](CO)NC(=O)[C@H](Cc1c[nH]c2ccccc12)NC(=O)[C@H](Cc1c[nH]cn1)NC(=O)[C@@H]1CCC(=O)N1)C(=O)N[C@@H](CCCNC(=N)N)C(=O)N1CCC[C@H]1C(=O)NCC(N)=O [[D-Ala^6]-LH-RH, reference compound] | – | – |
| 16.7 ± 4.3 nmol/L | CCNC(=O)[C@@H]1CCCN1C(=O)[C@H](CCCNC(=N)N)NC(=O)[C@H](CC(C)C)NC(=O)[C@@H](Cc1ccccc1)NC(=O)[C@H](Cc1ccc(O)cc1)NC(=O)[C@H](CO)NC(=O)[C@H](Cc1c[nH]c2ccccc12)NC(=O)[C@H](Cc1c[nH]cn1)NC(=O)[C@@H]1CCC(=O)N1 [[D-Phe^6, Pro^9NEt]-LH-RH, reference compound] | – | – |
| 44.9 ± 6.0 nmol/L | pGlu-His-Trp-Ser-Tyr-D-Ala-Ada-Arg-Pro-NEt [Example 28] | the Ada^7 replacement was more favorable than Npg^7; also recorded: more potent LH-RH agonists than current therapeutic LH-RH analogues | – |
| 36.2 ± 4.5 nmol/L | pGlu-His-Trp-Ser-Tyr-D-Leu-Ada-Arg-Pro-NEt [Example 29] | – | – |
| 28.0 ± 4.1 nmol/L | pGlu-His-Trp-Ser-Tyr-D-Phe-Ada-Arg-Pro-NEt [Example 27] | the Ada^7 replacement was more favorable than Npg^7 | – |
| 24.8 ± 4.1 nmol/L | pGlu-His-Trp-Ser-Tyr-D-Trp-Ada-Arg-Pro-Gly-NH2 [Example 30] | – | – |
